Like-named read-outs stand apart in the source and are kept apart here.
Tests used:
[1] = system: SARS-CoV-2 (βCoV/Korea/KCDC/2020); assay: microbe, parasite or virus in culture; type: cell-based; conditions: for IC50: vero cells, immunofluorescence; for inhibition at 10 µM: single concentration 10 μM, read-out: Inhibition of infection (%)
[2] = system: vero cells; conditions: for Cell number to mock (%): single concentration 10 μM; for CC50: vero cells
[3] = in vitro; conditions: African green monkey
[4] = system: SARS-CoV-2 pseudovirions; conditions: at 30 μM; cited from earlier work
[5] = system: SARS-CoV-2; conditions: read-out: IC50, in vitro antiviral efficacy against SARS-CoV-2; cited from earlier work
[6] = system: COVID-19; parameters: method as in PMID 34480861; conditions: phase 3 clinical trial; cited from earlier work
[7] = system: SARS-CoV; conditions: mice, 30 mg/kg; cited from earlier work
[8] = system: COVID-19; parameters: method as in PMID 33903855; conditions: cited from earlier work
[9] = Severe acute respiratory syndrome coronavirus 2, original SARS-CoV-2 strain
[10] = Severe acute respiratory syndrome coronavirus 2
[11] = CC50, vero cells, assay with Alpha var (B.1.1.7)
[12] = CC50, vero cells, assay with Beta var (B.1.351)
[13] = CC50, vero cells, assay with Delta var (B.1.617.2)
[14] = CC50, vero cells, assay with original SARS-CoV-2 strain
[15] = assay with original SARS-CoV-2 strain
[16] = assay with Delta var (B.1.617.2)

With `CC(=O)c1c(O)c(C)c(O)c2c1OC1=CC(=O)C(C(C)=O)C(=O)[C@@]12C` (single isomer, unassigned; (+)) [(+)-usnic acid] the “SI (selectivity index)” value [1] was 6.26, the IC50 [1, 9] was 7.99 µM and the inhibition at 10 µM [1, 10] was 61.6%. The “Cell number to mock (%)” value [2] was 94.69%, the CC50 [3, 11] was 34.8 µM and the CC50 [3, 12] was 32.4 µM. It also gave a CC50 [3, 13] of over 50 µM and a CC50 [3, 14] of over 50 µM.
In the case of `CCOC(=O)[C@H]1O[C@@H]1C(=O)N[C@@H](CC(C)C)C(=O)NCCC(C)C` [Aloxistatin], the “reduction of cell entry of SARS-CoV-2 pseudovirions” value [4] is listed as 92.5%.
For `Cc1ccc(N)cc1C(=O)N[C@H](C)c1cccc2ccccc12` [GRL0617], the IC50 [5] is given as 2.1 µM.
In the case of `CC(=O)C1=C(O)[C@]2(C)C(=CC1=O)Oc1c(C(C)=O)c(O)c(C)c(O)c12` [KU, potassium usnate], the IC50 ([1]; original SARS-CoV-2 strain) is reported as 7.57 µM and the CC50 [2, 15] is reported as over 50 µM.
In the case of `COC1=CC(=O)[C@@]2(C)c3c(O)c(C)c(O)c(C(C)=O)c3O[C@@]2(OC)C1` [Mycousfuran A, (4aS,9bR)-6-acetyl-7,9-dihydroxy-3,4a-dimethoxy-8,9b-dimethyl-4H-dibenzofuran-1-one], the inhibition at 10 µM [1, 10] is reported as 0.96% and the “Cell number to mock (%)” value [2] is reported as 109.23%.
In the case of `CC(=O)C1=C(O)C=C2Oc3c(C(C)=O)c(O)c(C)c(O)c3[C@]2(C)C1=O` [NaU, sodium usnate], the IC50 ([1]; original SARS-CoV-2 strain) is reported as 5.33 µM and the CC50 [2, 15] is reported as over 50 µM.
With `C[C@]12C[C@@]34C=CC(=O)[C@@](C)(CCC(=O)Nc5c(O)ccc(C(=O)O)c5O)[C@@H]3[C@H](C[C@@H]1C4)O2` [Platensimycin, 3-[[3-[(1S,3S,4S,5aS,9S,9aR)-1,4,5,8,9,9a-Hexahydro-3,9-dimethyl-8-oxo-3H-1,4:3,5a-dimethano-2-benzoxepin-9-yl]-1-oxopropyl]amino]-2,4-dihydroxybenzoic acid] the inhibition at 10 µM [1, 10] was 3.16% and the “Cell number to mock (%)” value [2] was 109.23%.
In the case of `CO[C@H]1[C@H](O)[C@@H](O)[C@H](n2c3c(Cl)cccc3c3c4c(c5c6cccc(Cl)c6[nH]c5c32)C(=O)NC4=O)O[C@@H]1CO` [Rebeccamycin, 1,11-Dichloro-12,13-dihydro-12-(4-O-methyl-β-D-glucopyranosyl)-5H-indolo[2,3-a]pyrrolo[3,4-c]carbazole-5,7(6H)-dione], the inhibition at 10 µM [1, 10] is reported as 10.6% and the “Cell number to mock (%)” value [2] is reported as 72.32%.
In the case of `CCS(=O)(=O)N1CC(CC#N)(n2cc(-c3ncnc4[nH]ccc34)cn2)C1` [barcitinib, Barcitinib], the “reduction of 28-day mortality rate compared to placebo” value [6] is listed as 38.2%.
For `CN(C)C(=O)COC(=O)Cc1ccc(OC(=O)c2ccc(NC(=N)N)cc2)cc1` [camostat mesilate], the survival level [7] is given as “above 60%” and the “efficacy in clinical trials for the treatment of COVID-19” value [8] is given as “did not show any particular efficacy”.
In the case of `CCN(CC)CCCC(C)Nc1ccnc2cc(Cl)ccc12` (centres unmarked) [chloroquine], the IC50 [1, 9] is reported as 11.5 µM, the CC50 ([2]; assay with Beta var (B.1.351)) is reported as over 150 µM and the CC50 [2, 16] is reported as over 150 µM. It also gave a CC50 [3] of over 150 µM.
In the case of `Cc1cccc(C)c1OCC(=O)N[C@@H](Cc1ccccc1)[C@@H](O)C[C@H](Cc1ccccc1)NC(=O)[C@H](C(C)C)N1CCCNC1=O` [lopinavir], the “SI (selectivity index)” value [1] is reported as 4.24, the IC50 [1, 9] is reported as 11.8 µM and the CC50 [3, 11] is reported as over 50 µM. For the same molecule, the CC50 [3, 12] was over 50 µM, the CC50 [3, 13] was over 50 µM and the CC50 [3, 14] was over 150 µM.
For `CCC(CC)COC(=O)[C@H](C)N[P@](=O)(OC[C@H]1O[C@@](C#N)(c2ccc3c(N)ncnn23)[C@H](O)[C@@H]1O)Oc1ccccc1` [remdesivir], the IC50 [1, 9] was 7.42 µM, the “SI (selectivity index)” value ([1]; original SARS-CoV-2 strain) was 6.74 and the CC50 ([2]; assay with Beta var (B.1.351)) was over 50 µM. For the same molecule, the CC50 [2, 16] was over 50 µM and the CC50 [3] was over 50 µM.

— article PMC9338942, “(+)-Usnic acid and its salts, inhibitors of SARS‐CoV‐2, identified by using in silico methods and in vitro assay” (Scientific Reports, 2022)
